The nature of data set [1]: Eight-week treatment of obese rats: food intake and bodyweight. In kind it is in vivo. The settings on record: 2.5 μg/kg/day subcutaneous. How it is done:
To further investigate the potency of KBP-089 against KBP-042 obese rats were dosed with 2.5 μg/kg/day given as subcutaneous injection of either KBP-089 or KBP-042 and then two control groups, a vehicle and a calorie restriction group, in which the food intake was matched to the food intake of the KBP-089 group to shed light on whether effects independent of food intake could be observed.
In FIGS. 11A-11B; the effect of the peptides on food intake (FIG. 11A) and bodyweight (FIG. […]) during the eight week treatment period is shown in the upper and lower panels respectively. […] Additionally, when comparing KBP-089 to the calorie restricted control group (pair-fed), which has received exactly the same amount of food as the KBP-089 group over the study period, it is clear that the weight reduction is not only mediated by a restriction of food intake, but also by other effects.

Data set [2] is described as follows: Acute single-dose test on food intake, bodyweight and post-prandial glucose in high fat diet obese rats. In kind it is in vivo, Male Sprague-Dawley rats. How it is done: To ensure the in vivo activity of this class of peptides, an acute test of the ability of KBP-056 to reduce food intake, bodyweight and post-prandial glucose compared to UGP302/KBP-042 was conducted. Male Sprague-Dawley rats were fed high fat diet for 8 weeks to induce obesity, and were then exposed to a single subcutaneous dose of 5 μg/kg KBP-056, UGP302/KBP-042 or vehicle (saline) (5 rats per group), and the effect on food intake, bodyweight and blood glucose was assessed. Blood was collected from the tail vein after 18 hours of dosing. Whole blood glucose levels were determined with an ACCU-CHEK® Avia blood glucose meter (Roche Diagnostics, Rotkreuz, Switzerland).

Data set [3] addresses T1, Calcitonin Receptor (CTR) (Homo sapiens, UniProt P30988).
T1 construct: host or cells: U2OS
T1 sequence (P30988 25-474): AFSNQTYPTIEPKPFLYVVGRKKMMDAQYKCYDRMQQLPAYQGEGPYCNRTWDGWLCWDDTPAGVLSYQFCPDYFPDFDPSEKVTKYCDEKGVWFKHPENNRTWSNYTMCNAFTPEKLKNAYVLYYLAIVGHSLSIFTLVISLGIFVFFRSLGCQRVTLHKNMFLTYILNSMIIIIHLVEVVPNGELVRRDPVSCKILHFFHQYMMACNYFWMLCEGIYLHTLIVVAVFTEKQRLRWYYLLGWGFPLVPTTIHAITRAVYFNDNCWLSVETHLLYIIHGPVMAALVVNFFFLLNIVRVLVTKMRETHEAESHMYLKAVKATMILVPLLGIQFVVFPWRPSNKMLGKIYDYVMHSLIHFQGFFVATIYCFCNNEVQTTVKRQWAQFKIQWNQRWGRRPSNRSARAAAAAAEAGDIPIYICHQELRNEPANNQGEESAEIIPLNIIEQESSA
Put plainly: PathHunter β-arrestin assay on the calcitonin receptor, incl. prolonged activation. The data set is classed as cell-based. The settings on record: U20S-CALCR cells; 4, 8, 24, 48, 72 h; 0.001-100 nM. How it is done: The following cell lines expressing the calcitonin, amylin and CGRP receptors were purchased and cultured according to the manufacturer's instructions. • 1. Calcitonin Receptor (CTR): U20S-CALCR from DiscoveRx (Cat. No.: 93-0566C3). • 2. Amylin Receptor (AMY-R): CHO-K1 CALCR+RAMP3 from DiscoveRx (Cat. No.: 93-0268C2). • 3. CGRP Receptor (CGRP-R): CHO-K1 CALCRL+RAMP1 from DiscoveRx (Cat. No.: 93-0269C2).
In independent bioassays, CTR, AMY-R and CGRP-R cells were treated with for the indicated timepoints with increasing doses of sCT, UGP-302/KBP-042 or the KBPs identified in Table 3 (0, 0.001, 0.01, 0.1, 1, 10, and 100 nM). […]
In this system, the GPCR is fused in frame with the small enzyme fragment ProLink™ and co-expressed in cells stably expressing a fusion protein of β-Arrestin and the larger, N-terminal deletion mutant of β-gal (called enzyme acceptor or EA). […] This interaction leads to an increase in enzyme activity that can be measured using chemiluminescent PathHunter® Detection Reagents.
The assay was performed in white 384 well plates (Greiner Bio-One, 784080). […] To quantify the GPCR-mediated β-arrestin recruitment the Pathhunter™ Detection Kit (93-0001, DiscoverX) was used and assay performed accordingly to the manufacturer's instructions. […]

A short description of data set [4]: Bone resorption (CTX-I) and cartilage degradation (CTX-II) in rats on HFD. The following applies: male rats on HFD. In kind it is in vivo. From the text:
This confirmed that the KBPs maintain their beneficial effects on bone and cartilage despite the amino-acid changes.

Data set [5] can be described thus: Three-week treatment of ZDF rats: fasting plasma glucose and HbA1c. In kind it is in vivo, male ZDF (fa/fa) rats. The following applies: 5 μg/kg/day subcutaneously once daily, 3 weeks. How it is done: To assess the effects of the peptides in relation to regulation of blood glucose levels, male ZDF rats, which are the gold standard model of Type 2 Diabetes were treated for 3 weeks with the 3 most promising KBPs (023, 056 and 088) and an active comparator (UGP302/KBP-042). Male ZDF (fa/fa) rats were obtained at the age of 7 weeks from Charles River Laboratories (Kisslegg, Deutschland). All animals were housed at the animal facility at Nordic Bioscience with a constant temperature (21-23° C.) and relative humidity (55-65%) on a 12 h light/dark cycle with free access to Purina 5008 rat chow (Brogaarden, Lynge, Denmark) and tap water. At the age of 8 weeks, the animals were randomized into five groups of 8 rats each based upon fasting blood glucose and body weight (Vehicle (saline), UGP302/KBP-042 5 μg/kg/day, KBP-023 5 μg/kg/day, KBP-056 5 μg/kg/day and KBP-088 5 μg/kg/day) and dosing was done subcutaneously once daily. The animals were treated for a total of 3 weeks to assess the effect of the peptides on fasting blood glucose. Blood glucose was monitored using the Accu-Check® Avia monitoring system (Roche Diagnostics, Rotkreuz, Switzerland) and HbA1c levels by the DCA Vantage™ Analyzer (Siemens Healthcare Diagnostics, Deerfield, Ill.).

A short description of data set [6]: Single-dose food intake in obese High-Fat-Diet rats. In kind it is in vivo. The settings on record: single subcutaneous dose 1.25, 2.5, 5 μg/kg; obese rats fasted overnight. How it is done:
Rats were fed a High-Fat-Diet for 14 weeks prior to the experiment to induce obesity.
Further similar studies were undertaken over different time periods and with different peptides and the results are seen in FIG. 10 and FIGS. 11A-11B. The ability of KBP089 to suppress food intake over 72 hours was compared to that of KBP042 as control and the results are seen in FIG. 10.

Bridges are numbered along the chain shown (N, C = ends).

In the case of “KBP-042: Peptide UGP302 of WO2013/067357, SEQ ID NO: 4; AcCSNLSTCVLGKLSQELHKLQTYPRTDVGANAP-NH2 (Ac-CSNLSTCVLGKLSQELHKLQTYPRTDVGANAP-NH2; ends and bridges not checked) [reference compound]”, in data set [1], the “bodyweight during eight week treatment” value is reported as “substantial weight loss” and the “food intake during eight week treatment” value was “reduce food intake dramatically in the beginning”. Also, the “RANK (48 h)” value in data set [2] (rank symbol + or 0 at 48 h, legend not given) was 0.
As to “KBP-056: SEQ ID NO: 11; AcCASLSTCVLGKLSQDLHKLQTFPRTDVGANAP-NH2 as printed in Table 3, Cys1-Cys7 disulphide bridge”, the “activation of the CTR (β-arrestin)” value in data set [3] was “superior ability to activate and maintain activation of the CTR”. In addition, in data set [4], the “bone resorption (CTX-I)” value was “dose and time-dependently reduced”; the “cartilage degradation (CTX-II)” value is “dose and time-dependently reduced”; the “maximum inhibition of CTX-I and CTX-II” value was “reached three hours after dosing and at doses exceeding 1 μg/kg/day”. Further, in data set [5], the HbA1c result is “highly active” and the “fasting plasma glucose (FPG)” value was “highly active”. Also, the food intake result in data set [2] (single subcutaneous dose 5 μg/kg, 18-hour period, obese HFD rats) is on record as “strongly reduced food intake”. In addition, the post-prandial glucose entry in data set [2] (single subcutaneous dose 5 μg/kg, blood after 18 hours, obese HFD rats) is “prominent reduction in post-prandial glucose levels”. Further, in data set [2] (single subcutaneous dose 5 μg/kg, obese HFD rats), the bodyweight entry is on record as “significant weight loss”.
In the case of “KBP-089: SEQ ID NO: 44; AcCSNLSTCMLGRLSQDLHRLQTYPKTDVGANAP-NH2, Cys1-Cys7 disulphide bridge (Ac-CSNLSTCMLGRLSQDLHRLQTYPKTDVGANAP-NH2; disulfide 1-7; SMILES CSCC[C@H](NC(=O)[C@@H]1CSSC[C@H](NC(C)=O)C(=O)N[C@@H](CO)C(=O)N[C@@H](CC(N)=O)C(=O)N[C@@H](CC(C)C)C(=O)N[C@@H](CO)C(=O)N[C@@H]([C@@H](C)O)C(=O)N1)C(=O)N[C@@H](CC(C)C)C(=O)NCC(=O)N[C@@H](CCCNC(=N)N)C(=O)N[C@@H](CC(C)C)C(=O)N[C@@H](CO)C(=O)N[C@@H](CCC(N)=O)C(=O)N[C@@H](CC(=O)O)C(=O)N[C@@H](CC(C)C)C(=O)N[C@@H](Cc1c[nH]cn1)C(=O)N[C@@H](CCCNC(=N)N)C(=O)N[C@@H](CC(C)C)C(=O)N[C@@H](CCC(N)=O)C(=O)N[C@H](C(=O)N[C@@H](Cc1ccc(O)cc1)C(=O)N1CCC[C@H]1C(=O)N[C@@H](CCCCN)C(=O)N[C@H](C(=O)N[C@@H](CC(=O)O)C(=O)N[C@H](C(=O)NCC(=O)N[C@@H](C)C(=O)N[C@@H](CC(N)=O)C(=O)N[C@@H](C)C(=O)N1CCC[C@H]1C(N)=O)C(C)C)[C@@H](C)O)[C@@H](C)O)”, in data set [1], the “bodyweight during eight week treatment” value is recorded as “greater than that introduced by KBP-042” and the “food intake during eight week treatment” value is reported as “reduce food intake dramatically in the beginning”. In data set [6], the “food intake, 0-4 hours” value is given as “led to a reduction in food intake”; the “food intake, 4-24 hours” value is on record as “the effect was maintained to 24 hours”; the “food intake, 24-48 hours” value was “led to a reduction in food intake”.

The values are drawn from patent US10232021B2, “Calcitonin mimetics for treating diseases and disorders” (KEYBIOSCIENCE AG, priority 2013, dated 2019).
